Data set [1] addresses T1, LRRK2 kinase in SH-SY5Y cells over-expressing recombinant full length LRRK2 (Homo sapiens, UniProt Q5S007).
T1 construct: A BacMam virus expressing full length recombinant LRRK2 was purchased from Invitrogen; host or cells: SH-SY5Y human neuroblastoma cells transduced with BacMam LRRK2 virus
Put plainly: Recombinant cellular LRRK2 AlphaScreen assay (LRRK2 Ser935 phosphorylation). The note with it: 60 min. The format is cell-based. The method, boiled down: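 SH-SY5Y cells transduced with BacMam full-length LRRK2 (MOI 50) for 24 h, then treated 60 min at 37 °C with compound (11-point 1:4 series, top 10 uM, 0.1% DMSO). Lysates probed by AlphaScreen for pSer935 vs total LRRK2; values fitted to a sigmoidal dose-response model.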
Background: In Alpha technology, singlet oxygen from a donor bead excites a nearby acceptor bead.

Another data set relates to human hepatocytes. Nature of the data set: Metabolic stability assay in hepatocytes. The format is in vitro ADME. The note with it: 0.5 μM test compound, intrinsic clearance. On the procedure:
c. Metabolic Stability Assay
Metabolic stability of compounds of the invention was evaluated in hepatocytes from human and preclinical species (e.g. rat). A test compound (0.5 μM) was incubated with 0.5 million viable hepatocytes at 37° C. in a 95% humidified incubator supplied with 5% CO2. 7-ethoxycoumarin was used as positive control and was treated in the same manner as the test compound. The incubation samples were gently mixed at 150 rpm. Incubation medium was Williams' Medium E containing 2 mM GlutaMAX™ and 25 mM HEPES. Samples were removed from incubation at a specified time interval (tx): 0, 15, 30, 60, 90 and 120 min. Reactions were terminated by adding equal volume of ice-cold acetonitrile/methanol/acetic acid (80/20/1, v/v/v) containing an internal standard (e.g. 100 ng/mL to butamide as internal standard). […] The instrument responses of the test compound and the internal standard were measured using a compound specific LC/MS/MS methodology. The percentage of remaining test compound is calculated from the peak area ratio between the remaining test compound after incubation (tx) and the test compound peak area at the beginning of incubation (tx=0 min).
The half-life (t1/2) is calculated using the following equation: […]
Metabolic stability of a test compound is expressed as Intrinsic Clearance (Clint) and is calculated from the half-life (t1/2) using the following equation: […]

The results in this text go back to patent US20200392158A1, “INHIBITORS OF LEUCINE RICH REPEAT KINASE 2” (GLAXOSMITHKLINE INTELLECTUAL PROPERTY DEVELOPMENT LIMITED, priority 2017, published 2020).

T1 sequence (Q5S007 whole entry): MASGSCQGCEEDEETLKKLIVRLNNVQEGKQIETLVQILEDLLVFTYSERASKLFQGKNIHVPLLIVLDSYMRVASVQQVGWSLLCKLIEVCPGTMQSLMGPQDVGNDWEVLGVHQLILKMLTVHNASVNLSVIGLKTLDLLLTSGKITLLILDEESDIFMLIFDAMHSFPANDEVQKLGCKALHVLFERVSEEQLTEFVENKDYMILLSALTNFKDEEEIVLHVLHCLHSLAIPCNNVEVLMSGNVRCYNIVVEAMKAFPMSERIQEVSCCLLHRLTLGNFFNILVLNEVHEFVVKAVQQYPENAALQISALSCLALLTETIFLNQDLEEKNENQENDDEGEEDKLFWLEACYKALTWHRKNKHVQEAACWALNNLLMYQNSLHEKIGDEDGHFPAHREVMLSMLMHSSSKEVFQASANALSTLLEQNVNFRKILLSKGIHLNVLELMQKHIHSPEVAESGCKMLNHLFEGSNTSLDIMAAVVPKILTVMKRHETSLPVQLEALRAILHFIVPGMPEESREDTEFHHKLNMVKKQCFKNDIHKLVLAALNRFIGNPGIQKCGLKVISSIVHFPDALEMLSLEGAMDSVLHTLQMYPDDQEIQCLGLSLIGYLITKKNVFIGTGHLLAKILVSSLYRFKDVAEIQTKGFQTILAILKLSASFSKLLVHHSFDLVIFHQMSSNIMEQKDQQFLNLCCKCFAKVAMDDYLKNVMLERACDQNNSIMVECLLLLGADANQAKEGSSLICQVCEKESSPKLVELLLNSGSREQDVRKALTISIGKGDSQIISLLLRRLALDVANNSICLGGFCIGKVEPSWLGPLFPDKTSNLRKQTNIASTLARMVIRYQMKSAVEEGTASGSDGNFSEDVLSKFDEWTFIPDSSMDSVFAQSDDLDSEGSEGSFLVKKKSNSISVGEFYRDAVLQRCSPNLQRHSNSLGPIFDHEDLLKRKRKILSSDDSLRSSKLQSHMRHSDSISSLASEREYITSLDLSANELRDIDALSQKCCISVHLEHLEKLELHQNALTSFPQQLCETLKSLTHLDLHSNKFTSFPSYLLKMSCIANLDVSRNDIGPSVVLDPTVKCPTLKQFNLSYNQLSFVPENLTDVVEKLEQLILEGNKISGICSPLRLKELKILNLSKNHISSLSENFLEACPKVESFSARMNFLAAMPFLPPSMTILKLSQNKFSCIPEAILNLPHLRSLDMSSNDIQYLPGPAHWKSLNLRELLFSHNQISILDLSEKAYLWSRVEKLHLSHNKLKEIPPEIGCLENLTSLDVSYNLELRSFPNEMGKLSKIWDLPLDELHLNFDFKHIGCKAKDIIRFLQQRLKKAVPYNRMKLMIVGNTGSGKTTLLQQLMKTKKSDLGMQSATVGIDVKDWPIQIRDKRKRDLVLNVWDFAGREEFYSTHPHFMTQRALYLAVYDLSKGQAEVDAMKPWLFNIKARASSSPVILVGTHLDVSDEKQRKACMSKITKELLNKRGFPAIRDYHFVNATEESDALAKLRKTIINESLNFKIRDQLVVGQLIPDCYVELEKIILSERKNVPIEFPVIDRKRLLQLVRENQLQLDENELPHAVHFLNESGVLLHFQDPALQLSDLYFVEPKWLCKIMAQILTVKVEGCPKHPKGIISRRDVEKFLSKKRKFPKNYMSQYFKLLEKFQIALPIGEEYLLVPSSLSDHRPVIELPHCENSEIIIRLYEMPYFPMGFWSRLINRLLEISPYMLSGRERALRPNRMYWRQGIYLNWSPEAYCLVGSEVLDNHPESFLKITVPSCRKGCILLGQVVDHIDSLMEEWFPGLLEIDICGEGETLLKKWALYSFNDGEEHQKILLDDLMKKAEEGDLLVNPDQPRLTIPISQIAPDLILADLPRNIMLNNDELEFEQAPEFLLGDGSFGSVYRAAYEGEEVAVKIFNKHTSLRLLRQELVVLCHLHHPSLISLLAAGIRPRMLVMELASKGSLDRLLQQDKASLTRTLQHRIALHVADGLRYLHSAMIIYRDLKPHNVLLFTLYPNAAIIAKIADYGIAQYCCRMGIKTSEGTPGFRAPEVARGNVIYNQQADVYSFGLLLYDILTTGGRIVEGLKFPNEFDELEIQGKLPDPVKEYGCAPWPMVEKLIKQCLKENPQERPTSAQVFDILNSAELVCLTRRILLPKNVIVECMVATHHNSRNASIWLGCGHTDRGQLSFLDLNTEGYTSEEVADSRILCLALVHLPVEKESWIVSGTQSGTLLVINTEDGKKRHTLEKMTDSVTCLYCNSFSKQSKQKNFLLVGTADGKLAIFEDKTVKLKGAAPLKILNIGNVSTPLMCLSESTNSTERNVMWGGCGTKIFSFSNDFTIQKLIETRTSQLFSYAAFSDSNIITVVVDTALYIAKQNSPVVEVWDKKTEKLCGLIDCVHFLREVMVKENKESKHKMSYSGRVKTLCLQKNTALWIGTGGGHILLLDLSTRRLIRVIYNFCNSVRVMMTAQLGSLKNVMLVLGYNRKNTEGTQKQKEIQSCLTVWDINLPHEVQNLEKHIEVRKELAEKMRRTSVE

For orientation: IC50 means the concentration that inhibits the measured activity by half. Regarding `Cc1c2c(nn1C(=O)C1CC1)OCCCNc1nc(ncc1Cl)N2` [E362, 14-Chloro-5-cyclopropanecarbonyl-4-methyl-8-oxa-2,5,6,12,16, 17-hexaazatricyclo[11.3.1.0^3,7]heptadeca-1(16),3,6,13(17),14-pentaene], the IC50 in data set [1] is not above 100 nM. The “Clint (human)” value with human hepatocytes was more than 10 mL/min/g.
